Tests used:
C2C12 cells [1] = assay: Toxicity (percent of cell death), C2C12 cells; format: cell-based; details: 20 μM
Procedure: (§1) EphA4 kinase inhibition is assessed by both an enzymatic assay measuring the phosphorylation of a purified recombinant EphA4 kinase and a cell-based assay using the activation of pGas-Luciferase system in EphA4-transfected CHO-K1 cells. The functional effects of EphA4 RTK inhibitors on cell motility and proliferation is evaluated by the scratch wound assay. The effect of EphA4 RTK inhibitors is also directly measured on the cell confluence. The counterscreen assays (cell counterscreen, Src, Jak2 and P38α kinase) identified other potential inhibitory activities of compounds unrelated to EphA4 kinase. The toxicity is measured by the percent of cell death in the different cell assays. Values represent IC50 and IP in μM calculated from the dose-response curves. Values in parentheses give the maximum percent inhibition.

[2] = test system: Primary Rat cortical astrocytes; assay: Proliferation assay (cell confluence), astrocytes; format: cell-based; details: at 5 μM
Procedure: (§2) C2Cl2 were plated at 15,000 cells per well and then differentiated into myotubes with DMEM supplemented with 2% horse serum for 3 days in 24 well ImageLock™ plate (Essen Instruments, MI, USA). Primary Rat cortical astrocytes were plated at 3.105 cells/ml onto 24 well ImageLock™ plate.
(§3) Cells were placed into the IncuCyte™ at 37° C. and 95% CO2/5% O2, for two to three days. During this time, the cells within each well were repeatedly imaged at fixed time intervals (every three hours). The IncuCyte™ system automatically monitored the proliferation using the percentage of confluence. Percent of confluence can be graphed over time to evaluate the characteristics of proliferation in the presence of pharmacological agents.
(§4) Compounds were tested at 5 μM in quadruplicate. The percentage of reduction of cell confluence was calculated from the AUCs in comparison with the AUCs of the control wells (1% DMSO).

[3] = test system: Jak2/Stat3 activation with Interferon Gamma in MCF-7 cells; assay: Cell-based counterscreen assay (IFN-γ activated Jak2/Stat3, pGAS-Luc in MCF-7 cells); details: for IC50: Homo sapiens, MCF7, inflexion point, read-out: Cell Counter Screen Assay IP
Source text: EphA4 cell-based assay was based on the signaling pathway of EphA4, which involves activation of the tyrosine kinase Jak2 and the transcriptional activator Stat3. However, pharmacological agents could also interfere downstream of EphA4 signaling and particularly on Jak2 activity. To counterscreen this potential effect unrelated to EphA4 activity, a new assay was designed based on direct activation of the tyrosine kinase Jak2 and the transcriptional activator Stat3 with Interferon Gamma (IFN-γ).
MCF-7 cells were maintained in MEM growth media, supplemented with 10% fetal bovine serum, 2 mM L-glutamine, 1.5 g/L sodium bicarbonate, 0.1 mM non-essential amino acids, 1 mM sodium pyruvate, and 0.01 mg/ml bovine insulin. For the luciferase assay MCF-7 cells were co-transfected the next day with 50 μg of pGAS-Luc and 5 μg of empty vector pRL-CMV, which encoded the Renilla luciferase, and was included in the transfection mix for normalization. Six hours after transfection the cells were trypsinized and plated at 4.105 cells/ml into 96 well Black/Clear Poly-D-Lysine coated plates (Biocoat) that had been pre-spotted with compounds. IFN-γ (BD Pharmingen, USA) was then added to the wells. Cells were lysed the next day using the Reporter Lysis Buffer (Promega), and the luciferase activity was measured using the Dual Luciferase Assay (Promega) following the manufacturer's directions. The Firefly and Renilla luminescences are read consecutively on a Top-Count (Perkin-Elmer).
Results are expressed as a ratio of the two luminescence: Firefly Luciferase/Renilla Luciferase. Cell viability was assessed on parallel plates using the Cell Glo Assay (Promega) following the manufacturer's directions. Results are expressed as percent of cell death in comparison with vehicle-treated wells.
Compounds were titrated in duplicate at 10 points concentration starting at 100 μM with a 1.5 fold increment. Concentration-response curves were represented and the concentrations at the inflexion point (IP) were calculated. The maximum effect was given by the maximum percent inhibition calculated from the results of the control wells (containing only DMSO).

P38alpha kinase = biological target: T1, P38alpha kinase (Homo sapiens, UniProt Q16539); assay: P38 alpha kinase counterscreen assay (Caliper mobility shift); format: biochemical
T1 construct: purchased Dundee Library
Procedure: A counterscreen assay was performed to measure p38alpha kinase activity using the Caliper System (LifeSciences, USA). This system is based on the microfluidic technology. P38 alpha kinase activity was measured by the shift in mobility of the non-phosphorylated form when separated by electrophoresis and detected via LED (Light Emitting Diode) induced fluorescence. This assay was automated following the manufacturer's protocol. P38alpha kinase and its substrate GST-MK2 were bought from Dundee Library.
Compounds were titrated, concentration-response curves were represented and the concentrations for 50% inhibition (IC50) were calculated.

[4] = test system: Primary Rat cortical astrocytes; assay: Toxicity (percent of cell death), astrocytes; format: cell-based; details: at 20 μM
Procedure: as §1

C2C12 cells [5] = assay: Proliferation assay (cell confluence), C2C12 cells; format: cell-based, mouse; details: at 5 μM
Procedure: as §2, §3, §4

Jak2 = biological target: T2, Jak2 (Homo sapiens, UniProt O60674); assay: Jak2 kinase counterscreen enzymatic assay (TR-FRET); format: biochemical; details: 5 μM ATP
T2 construct: purchased Cell Signaling, USA
Procedure: Counterscreen assays were developed for the tyrosine kinases src kinase and Jak2 kinase, with a format essentially identical to the EphA4 kinase TR-FRET format. Jak2 (50 ng) (Cell Signaling, USA) was incubated with 0.5 μM of biotinylated FLT3 peptide (Cell Signaling, USA) in presence of 5 μM of ATP (Sigma). P60c-src (10 U/well) (Upstate biotechnology, USA) was incubated with biotinylated Poly(Glu Tyr) peptide (100 nM) in presence of 0.5 μM of ATP. The enzymatic reaction was stopped after 60 min by adding 15 mM EDTA. The detection reaction and energy transfer signal measurements were similar to those previously described. Results were expressed as ratios of the absorbencies 665/615.
Compounds were titrated in duplicate at 11 points concentration starting at 100 μM with a 3 fold increment. Compounds were diluted in DMSO. […] Percentage inhibition for each compound was then calculated based on the value of the 100% inhibition. Concentration-response curves were represented and the concentrations for 50% inhibition (IC50) were calculated.

T2 sequence (O60674 whole entry, species assumed): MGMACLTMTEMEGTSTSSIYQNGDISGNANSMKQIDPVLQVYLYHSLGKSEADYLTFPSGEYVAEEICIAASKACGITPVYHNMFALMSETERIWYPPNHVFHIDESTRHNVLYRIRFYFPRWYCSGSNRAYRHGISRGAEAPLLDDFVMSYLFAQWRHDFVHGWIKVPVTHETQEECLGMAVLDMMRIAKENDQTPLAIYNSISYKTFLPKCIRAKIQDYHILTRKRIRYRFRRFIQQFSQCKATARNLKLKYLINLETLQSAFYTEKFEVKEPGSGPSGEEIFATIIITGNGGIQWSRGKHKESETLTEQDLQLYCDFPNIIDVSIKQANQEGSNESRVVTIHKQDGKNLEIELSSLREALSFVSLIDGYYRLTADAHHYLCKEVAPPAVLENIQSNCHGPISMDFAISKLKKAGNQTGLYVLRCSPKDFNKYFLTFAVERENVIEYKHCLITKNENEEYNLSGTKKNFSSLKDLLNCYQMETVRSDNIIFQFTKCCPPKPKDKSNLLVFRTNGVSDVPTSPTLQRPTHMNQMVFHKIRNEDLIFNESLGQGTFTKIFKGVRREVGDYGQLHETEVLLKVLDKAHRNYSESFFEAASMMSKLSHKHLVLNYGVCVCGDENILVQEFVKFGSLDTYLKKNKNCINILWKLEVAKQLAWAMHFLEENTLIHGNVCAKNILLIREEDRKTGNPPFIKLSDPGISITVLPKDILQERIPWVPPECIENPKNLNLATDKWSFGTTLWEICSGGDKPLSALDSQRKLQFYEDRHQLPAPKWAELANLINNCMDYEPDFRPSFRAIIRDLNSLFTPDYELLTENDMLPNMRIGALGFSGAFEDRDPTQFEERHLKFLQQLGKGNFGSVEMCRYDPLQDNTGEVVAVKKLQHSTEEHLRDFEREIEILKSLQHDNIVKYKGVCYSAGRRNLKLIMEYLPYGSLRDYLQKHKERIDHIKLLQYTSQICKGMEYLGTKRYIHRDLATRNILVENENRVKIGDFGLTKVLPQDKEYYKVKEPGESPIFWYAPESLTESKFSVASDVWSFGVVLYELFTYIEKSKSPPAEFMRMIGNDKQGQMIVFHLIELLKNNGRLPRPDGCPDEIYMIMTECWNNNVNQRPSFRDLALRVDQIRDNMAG
T1 sequence (Q16539 whole entry): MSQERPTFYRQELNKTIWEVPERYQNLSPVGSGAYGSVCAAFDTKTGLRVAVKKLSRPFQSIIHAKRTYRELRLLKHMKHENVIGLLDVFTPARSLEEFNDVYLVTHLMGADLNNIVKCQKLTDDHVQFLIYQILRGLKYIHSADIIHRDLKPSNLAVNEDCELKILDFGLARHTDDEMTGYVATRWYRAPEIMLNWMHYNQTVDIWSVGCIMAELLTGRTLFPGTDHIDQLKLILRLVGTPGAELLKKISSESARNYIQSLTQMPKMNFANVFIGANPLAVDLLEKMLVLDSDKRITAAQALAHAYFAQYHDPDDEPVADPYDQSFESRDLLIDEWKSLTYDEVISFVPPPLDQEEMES

Row | SMILES | Max Toxicity C2C12 in cells % of cell death (C2C12 cells [1]) | % Reduction of Confluence Astrocytes [2] | Cell Counter Screen Assay max inhibition in % [3] | IC50 [3] | IC50 (P38alpha kinase) | Max Toxicity Astrocytes % of cell death [4] | % Reduction of Confluence C2C12 Cells (C2C12 cells [5]) | IC50 (Jak2)
1 | CC1CCc2c(-c3ccccc3Cl)nc3[nH]nc(N)c3c2C1 (stereo not shown) [Example 63] | 3% | 14.8% at 5 μM | 82% | 20 µM | 7.3 µM | 5% at 20 μM | 9.2% at 5 μM | > 100 µM
2 | Cc1ccccc1-c1nc2[nH]nc(N)c2c2c1CCC(C)(C)C2 [Example 67] | 10% | 29.1% at 5 μM | 81% | 13 µM | 3.7 µM | 12.5% at 20 μM | 49.2% at 5 μM | 1 µM

— patent publication US20100113415A1, “EPHA4 RTK INHIBITORS FOR TREATMENT OF NEUROLOGICAL AND NEURODEGENERATIVE DISORDERS AND CANCER” (priority 2008, published 2010)
